Laboratory results published in patent US6576239B1, “Angiogenic homing molecules and conjugates derived therefrom” (The Burnham Institute, priority 1996, dated 2003).
Like-named read-outs stand apart in the source and are kept apart here. No end group written: not given here.

Columns and labels:
[1] = Acute toxicity in mice bearing extremely large tumors
[2] = system: MDA-MB-435 human breast carcinoma cells; assay type: cell-based; settings: for cell killing: agents not removed after 30 min, 24 hr
Procedure: MDA-MB-435 human breast carcinoma cells were plated at 1×10^5 cells/well in 96 well plates. Cells were incubated with increasing amounts of doxorubicin, the doxorubicin/[…] (SEQ ID NO: 1) conjugate, or the doxorubicin/GACVFSIAHECGA (SEQ ID NO: 19; control) conjugate (0.1 to 10 μg/well of doxorubicin-equivalent) for either 30 min or overnight. […] The number of surviving cells was determined at 24hours with crystal violet staining (see Koivunen et al., supra, 1994).

[3] = system: MDA-MB-435 breast carcinoma; assay: Tumor therapy of breast tumor bearing mice with doxorubicin/peptide conjugates; assay type: in vivo, BALB/c nu/nu mice; settings: for gross examination of tumors (skin ulceration, tumor necrosis): 5 μg doxorubicin equivalent; for effect on tumor growth: relative to treatment with the vehicle, alone
Procedure: Female 2-month old BALB/c nu/nu mice (Harlan Sprague Dawley; San Diego Calif.) were used for these studies and were cared for according to the Burnham Institute animal facility guidelines. MDA-MB-435 breast carcinoma cells (Price et al., Cancer Res. 50:717-721 (1993)) were injected in the mammary fat pad of the nude mice and tumor growth was monitored (Pasqualini et al., supra, 1997). Tumors were allowed to grow to a size of about 1 cm^3 (about 5% of the mouse's body weight) before starting the treatment experiments, except for the toxicity experiments as discussed below.
Weekly doxorubicin/peptide conjugate or control treatments (5 μg/mouse/week of doxorubicin-equivalent) were administered intravenously. In some experiments, as indicated, a dose of 30 μg/mouse was administered every 3 weeks. Treatment with doxorubicin, alone, is referred to as “dox control” and treatment with doxorubicin conjugated to the non-tumor homing control peptide, […] As an additional control, in some experiments the tumor homing peptide was mixed with doxorubicin, without linking, and the mixture was administered to tumor bearing mice. Such treatment produced results that were not statistically different from those obtained with the above described dox controls.
Mice were anesthetized with a tribromoethanol-based anesthetic mixture (AVERTIN; Papaioannou and Fox, Lab. Anim. 43:189-192 (1993)) before each treatment. Anesthetization facilitated the tail vein injections (final volume, 200 μl) and allowed precise serial three dimensional tumor size measurements. Tumor volume calculations were based on the equation for the volume of an ovaloid: V= 4/3 (Πabc), where a, b, and c are ½ of the measured diameters in each of the three dimensions.

breast tumor [4] = assay: Competition of phage tumor homing by coinjection of free peptide; assay type: in vivo, mice; settings: for effect of coinjected free peptide on homing of CDCRGDCFC phage: coinjection with CDCRGDCFC (RGD) phage; for effect of co-injected peptide on accumulation of NGR phage in breast carcinoma xenografts: phage expressing CNGRCVSGCAGRC, NGRAHA or CVLNGRMEC
Source text: Selective homing can be distinguished from nonspecific binding, however, by detecting differences in the abilities of different individual phage to home to a tumor. For example, selective homing can be identified by combining a putative tumor homing molecule such as a peptide expressed on a phage with a large excess of non-infective phage or with about a five-fold excess of phage expressing unselected peptides, injecting the mixture into a subject and collecting a sample of the tumor. […] In addition, nonspecific localization can be distinguished from selective homing by performing competition experiments using, for example, phage expressing a putative tumor homing peptide in combination with an excess amount of the “free” peptide (Example IV).
The various peptides, including RGD- and NGR-containing peptides, generally were bound to the tumor blood vessels. The minimal cyclic NGR peptide, CNGRC (SEQ ID NO: 8), was synthesized based on the CNGRCVSGCAGRC (SEQ ID NO: 3) sequence. When the CNGRC (SEQ ID NO: 8) peptide was co-injected with phage expressing either CNGRCVSGCAGRC (SEQ ID NO: 3), NGRAHA (SEQ ID NO: 6) or CVLNGRMEC (SEQ ID NO: 7), accumulation of the phage in the breast carcinoma xenografts was inhibited. […] (SEQ ID NO: 1) peptide, even when administered in amounts up to ten times higher than those that inhibited the homing of the NGR phage. In comparison, the […]

human αv-integrins = settings: cited from earlier work
[5] = system: Human 435 breast carcinoma tumor; assay: In vivo targeting of phage expressing a peptide to a tumor (phage quantitated in organs); design: species or system mice; settings: mouse melanoma, human Kaposi's sarcoma xenograft
Procedure: Human 435 breast carcinoma cells were inoculated into the mammary fat pad of nude mice. When the tumors attained a diameter of about 1 cm, phage expressing a specific RGD-containing peptide were administered to the tumor bearing mouse. Similar results
1×10^9 phage expressing the RGD-containing peptide, […] (SEQ ID NO: 1; see, Koivunen et al., supra, 1995) or control (insertless) phage were injected intravenously (iv) into the mice and allowed to circulate for 4 min. The mice then were snap frozen or perfused through the heart while under anesthesia, and various organs, including tumor, brain and kidney, were removed and the phage present in the organs was quantitated (see U.S. Pat. No. 5,622,699; Pasqualini and Ruoslahti, supra, 1996).
Approximately 2-3 times more phage expressing the […] (SEQ ID NO: 1) peptide were detected in the breast tumor as compared to brain and kidney, indicating the […] […] In a parallel study, unselected phage, which express various, diverse peptides, were injected into tumor-bearing mice and various organs were examined for the presence of phage. Far more phage were present in kidney and, to a lesser extent, brain, as compared to the tumor. Thus, the 80-fold more RGD-expressing phage than unselected phage concentrated in the tumor.

B16B15b mouse melanoma = assay: In vivo panning against a melanoma tumor; design: species or system mice; settings: 89 cloned phage recovered from B16B15b tumors after three rounds
Procedure: Tumors were transplanted into mice as described in Examples II and III, below. A mixture of phage libraries containing 1×10^9 to 1×10^14 TU was diluted in 200 μl DMEM and injected into the tail vein of anesthetized mice (AVERTIN (0.015 ml/g); see U.S. Pat. No. 5,622,699; Pasqualini and Ruoslahti, supra, 1996). After 1-4 minutes, mice were snap frozen in liquid nitrogen. To recover the phage, carcasses were partially thawed at room temperature for 1 hr, tumors and control orqans were collected and weighed, then were ground in 1 ml DMEM-PI (DMEM containing protease inhibitors (PI); phenylmethylsulfonyl fluoride (PMSF; 1 mM), aprotinin (20 μg/ml), leupeptin (1 μg/ml)).
Individual colonies containing phage recovered from a tumor were grown for 16 hr in 5 ml NZY/tet. The bacterial cultures obtained from the individual colonies were pooled and the phage were purified and re-injected into mice as described above for a second round of in vivo panning. In general, a third round of panning also was performed. Phage DNA was purified from individual bacterial colonies obtained from the final round of in vivo panning and the DNA sequences encoding the peptides expressed by selected phage were determined (see Koivunen et al., supra, 1994b).
Mice bearing a melanoma were produced by implantation of B16B15b mouse melanoma cells, which produce highly vascularized tumors. […]

breast tumor [6] = assay: Viability of tumor cells obtained from tumors of treated mice; assay type: in vivo; settings: 30 μg equivalent iv, tumors removed after five days, cells counted 24 hours and 7 days after plating
Procedure: In addition, the viability of tumor cells obtained from tumors of mice treated with a tumor homing peptide/doxorubicin conjugate was compared to that of tumors from mice treated with free doxorubicin. In these experiments, breast tumor bearing mice were size matched with regard to the tumors, then treated intravenously with 30 μg equivalent of doxorubicin/CDCRGDCFC (SEQ ID NO: 1) or of free doxorubicin. Five days after treatment, the mice were euthanized and the tumors were removed. The tumor pairs were weighed and ground and the cell suspensions were plated (2 g tumor tissue per 150 mm plate).
Cell numbers were determined at 24 hours and 7 days after plating. Viability of tumor cells from the tumors of mice receiving the doxorubicin/CDCRGDCFC (SEQ ID NO: 1) conjugate was about 3 fold less than cells from tumors of mice treated with the free doxorubicin.

[7] = 200 μg/mouse, tumors about 25% of body weight
[8] = 30 min exposure, 0.1 to 10 μg/well doxorubicin-equivalent, survivors counted at 24 hours
[9] = 5 μg/mouse/week doxorubicin-equivalent iv
[10] = 5 μg/mouse/week iv, t test, p<0.0001

COc1cccc2c1C(=O)c1c(O)c3c(c(O)c1C2=O)C[C@@](O)(C(=O)CO)C[C@@H]3O[C@H]1C[C@H](N)[C@H](O)[C@H](C)O1 [doxorubicin, reference compound]
time to death after treatment [1, 7]: ≤ 48 h | cell death [2, 8]: cell death was present only in the cultures treated with the doxorubicin/[…] | cell killing [2]: the cells were killed by all of the treatments | gross examination of tumors (skin ulceration, tumor necrosis) [3]: no such signs were observed | effect on tumor growth [3]: essentially no effect on tumor growth

ACDCRGDCFCG
effect of coinjected free peptide on amount of RGD phage in the tumor (breast tumor [4]; 500 μg free peptide coinjected with phage expressing CDCRGDCFC): reduced the amount of phage in the tumor by about tenfold

CDCRGDCFC
binding to human αv-integrins (human αv-integrins): binds to human αv-integrins | effect of coinjected free peptide on homing of CDCRGDCFC phage (breast tumor [4]): greatly reduced tumor homing of the RGD phage | amount needed to inhibit homing of NGR phage relative to CNGRC peptide (breast tumor [4]; higher than that of the CNGRC peptide): 5 to 10 fold | effect of co-injected peptide on accumulation of NGR phage in breast carcinoma xenografts (breast tumor [4]): partially inhibited

CGSLVRC
effect of coadministered free peptide on homing of CGSLVRC phage (breast tumor [4]; mouse, in vivo): inhibited

CLSGSLSC
tumor homing of phage/peptide [5]: also homed to a breast tumor and to Kaposi's sarcoma | share of the clones sequenced (B16B15b mouse melanoma): 52%

CNGRC
effect of coinjected free peptide on homing of CDCRGDCFC phage (breast tumor [4]): did not inhibit | effect of co-injected peptide on accumulation of NGR phage in breast carcinoma xenografts (breast tumor [4]): inhibited

CNGRCVSGCAGRC
tumor homing of phage/peptide [5]: also homed in vivo to a melanoma and to a Kaposi's sarcoma, but not to nontumor tissues

GRGESP [reference compound]
effect of coinjected free peptide on amount of RGD phage in the tumor (breast tumor [4]; 500 μg free peptide coinjected with phage expressing […]): essentially had no effect

WGTGLC
share of the clones sequenced (B16B15b mouse melanoma): 25%

doxorubicin/CDCRGDCFC: doxorubicin coupled by EDC/NHS to the tumor homing peptide CDCRGDCFC (SEQ ID NO: 1) (cysteine pairing not given here; also: doxorubicin conjugate via EDC/NHS, site not given here)
survival after treatment [1, 7]: survived for longer than one week | cell death [2, 8]: cell death was present | cell killing [2]: the cells were killed by all of the treatments | viability of tumor cells, fold less than after free doxorubicin (breast tumor [6]): about 3 fold | gross examination of tumors (skin ulceration, tumor necrosis) [3]: marked skin ulceration and tumor necrosis | survival [3, 9]: survived beyond the time when the dox control and conjugate control mice had died | tumor size compared with control groups [3, 9]: significantly smaller tumors | pulmonary metastasis vs dox control [3, 10]: a lower incidence of pulmonary metastasis and fewer metastatic lesions | spread to regional lymph nodes vs dox control [3, 10]: less spread to regional lymph nodes | histopathological analysis of tumor vasculature ([3]; compared to the dox control group): pronounced destruction of the vasculature in the tumors | time remaining alive after dox control and conjugate control mice had died ([3]; dose escalation, 30 μg/mouse every three weeks for three cycles): more than 6 months

doxorubicin/CNGRC (cysteine pairing not given here; also: doxorubicin conjugate)
toxicity relative to free doxorubicin ([1]; mouse, in vivo): less toxic than free doxorubicin | survival [3, 9]: marked effect on survival | tumor size compared with control groups [3, 9]: significantly smaller | effect on tumor growth [3]: almost completely suppressed tumor growth

doxorubicin/GACVFSIAHECGA: doxorubicin conjugated to the non-tumor homing control peptide GACVFSIAHECGA (SEQ ID NO: 19) (cysteine pairing not given here; also: doxorubicin conjugate) [reference compound]
cell death [2]: cell death was present only in the cultures treated with the doxorubicin/[…] | cell killing [2]: the cells were killed by all of the treatments | gross examination of tumors (skin ulceration, tumor necrosis) [3]: no such signs were observed | results as compared to dox control groups [3, 9]: not significantly different | effect on tumor growth [3]: essentially no effect on tumor growth
